Key:
Human ES cells (KhES-1) = test: Production of retinal pigment epithelium from human ES cell aggregates; assay type: cell-based; details: Matrigel and serum steps
Protocol: Human ES cells (KhES-1) were cultured according to the methods described in “Ueno, M. et al. PNAS 2006”, “Watanabe, K. et al. Nat Biotech 2007” and used for the experiment. As the medium, DMEM/F12 medium (Invitrogen) added with 20% KSR (Knockout Serum Replacement; Invitrogen), 0.1 mM 2-mercaptoethanol, 1 mM pyruvic acid, and 5 to 10 ng/ml bFGF was used. For the formation of retinal tissue by floating culture, the ES cells were dispersed into single cells by using 0.25% trypsin-EDTA (Invitrogen), suspended in a serum-free medium (100 μl) to 9×10^3 cells per well of a non-cell adhesive 96-well culture plate (SUMILON spheroid plate, SUMITOMO BAKELITE CO., LTD.) to allow for rapid formation of aggregates, and floating cultured at 37° C., 5% CO2. As the serum-free medium in this case, a serum-free medium obtained by adding 20% KSR, 0.1 mM 2-mercaptoethanol, 1 mM pyruvic acid, 20 μM Y27632 and a substance inhibiting the Wnt signal pathway (3 μM IWR1e) to G-MEM medium was used. Matrigel was added in an amount of 1/100 per volume from day 2 of the floating culture and floating culture was performed. The aggregate was transferred to a serum-free medium without containing a substance inhibiting the Wnt signal pathway on day 12 from the start of the floating culture, fetal calf serum in an amount of 1/10 per volume was added and cultured. […]

[1] = system: RAX::GFP knock-in human ES cells; test: Production of optic-cup-like structure from human ES cell aggregates; assay type: cell-based; details: 3 μM CHIR99021 and 100 nM SAG together in serum-containing medium from day 15
Protocol: RAX::GFP knock-in human ES cells (derived from KhES-1) were cultured according to the methods described in “Ueno, M. et al. PNAS 2006”, “Watanabe, K. et al. Nat Biotech 2007” and used for the experiment. As the medium, DMEM/F12 medium (Invitrogen) added with 20% KSR (Knockout Serum Replacement; Invitrogen), 0.1 mM 2-mercaptoethanol, 1 mM pyruvic acid, and 5 to 10 ng/ml bFGF was used. For the formation of aggregate by floating culture, the ES cells were dispersed into single cells by using 0.25% trypsin-EDTA (Invitrogen), suspended in a serum-free medium (100 μl) to 9×10^3 cells per well of a non-cell adhesive 96-well culture plate (SUMILON spheroid plate, SUMITOMO BAKELITE CO., LTD.) to allow for rapid formation of aggregates, and floating cultured at 37° C., 5% CO2. As the serum-free medium in this case, a serum-free medium obtained by adding 20% KSR, 0.1 mM 2-mercaptoethanol, 1 mM pyruvic acid, 20 μM Y27632 and a substance inhibiting the Wnt signal pathway (3 μM IWR1e) to G-MEM medium was used. During the floating culture, Matrigel in an amount of 1/100 per volume was added from day 2 from the start of the floating culture. The floating aggregate was transferred to a serum-free medium without a substance inhibiting the Wnt signal pathway on day 12 from the start of the floating culture, fetal calf serum in an amount of 1/10 per volume was added and the aggregate was cultured. […]

Compound	retinal pigment epithelia on aggregates (bright-field) (Human ES cells (KhES-1); Activin A 100 ng/ml with 3 μM CHIR99021 from day 15, after IWR1e)	optic-cup-like structure formation on aggregate [1]	retinal pigment epithelium on aggregates (bright-field) (Human ES cells (KhES-1); 3 μM CHIR99021 from day 15, after IWR1e)
Activin A: substance acting on the Activin signal pathway; Recombinant Human/Mouse/Rat Activin A (R&D systems #338-AC)	almost all the surfaces of the aggregates were covered with retinal pigment epithelia		
Cc1c[nH]c(-c2cnc(NCCNc3ccc(C#N)cn3)nc2-c2ccc(Cl)cc2Cl)n1 [CHIR99021]		a clear optic-cup-like structure was formed	emerged on almost all surfaces of the aggregates

Reference: patent publication US12582677B2, “Methods for producing retinal tissue and retina-related cell” (SUMITOMO CHEMICAL COMPANY, LIMITED, priority 2011, dated 2026)
